{"source": "paper PMC11607671", "about": "“Antiviral activity of cathelicidins against porcine epidemic diarrhea virus (PEDV): Mechanisms, and efficacy” (Virus Research, 2024)", "key": {"[1]": {"system": "PEDV-GFP", "assay": "Co-incubation antiviral assay, PEDV-GFP MOI=0.3, Vero cells (fluorescence microscopy and flow cytometry)", "assay_type": "cell-based, Porcine epidemic diarrhea virus", "description": "(§1) In order to determine the effect of AMPs on the infectivity of PEDV, Vero cells (5 × 10^5 per well) were seeded in 12-well plates and cultured overnight at 37 °C, 5% CO2. In a co-incubation of virus and AMPs experiments (Fig. 2A), the mixture of AMPs (0–10 µM) and PEDV-GFP (MOI= 0.3) in a 1 mL volume of DMEM (P/S + 10% FCS) was added to the cells and incubated at 37 °C. After 2 h, the supernatant was replaced with fresh DMEM (P/S + 10% FCS) and incubated for 24 h. Subsequently, the cells were washed 2 times with flow cytometry buffer (500 mL PBS+ 10 mL FCS+ 250 µL of 10% NaN3) and were imaged with an EVOS M5000 Imaging System for semi-quantitative determination of infectivity. Eventually, cells were carefully detached by 2.5% trypsin, stained with ViaKrome 808 fixable viability dye (1:1000), and incubated for 30 min at 4 °C. Following washing, the cells were fixed using 50 µL of 4% PFA for 10 min, and a minimum of 1 × 10^5 cells were acquired using the CytoFLEX LX Flow Cytometer (FC)(Beckman Coulter, USA). Data was analyzed using FlowJo software v.10.6 (Flowjo LCC, Ashland, OR, USA).\nFig. 2 Effect of AMPs on the infectivity of PEDV (MOI=0.3). A) Experimental set-up of the ‘co-incubation assay’; Vero cells were subjected to 2 h exposure to a combination of AMPs and PEDV-GFP. Afterward, the supernatant was replaced, and the cells were incubated for an additional 24 h B) Fluorescent microscopy (20 × magnification) was performed to visualize the fluorescence signal of GFP in the presence of 1, 5, and 10 µM AMPs. The cell-only sample consists exclusively of cells while the no-peptide sample contains only PEDV-GFP, with no peptides present.\nFig. 3 Antiviral activity of AMPs as determined by flow cytometry (FC). A) The percentage of GFP-positive cells following a 2 h incubation with a combination of PEDV and AMPs. […] The values reported here depict the average ± SD derived from three independent experiments performed in duplicate. * p < 0.05; ** p < 0.01."}, "[2]": {"system": "PEDV", "assay": "Co-incubation antiviral assay, PEDV MOI=1, Vero cells", "assay_type": "cell-based, Porcine epidemic diarrhea virus", "conditions": "Fig. 4B", "description": "as §1\nFig. 4 The inhibitory effect of AMPs on PEDV at MOI=1. A) Fluorescence microscopy image was captured at 20 × magnification to visualize the GFP fluorescence signal in Vero cells following co-incubation of AMPs and PEDV at MOI=1. B) The percentage of GFP-positive cells was determined by FC after 3 h co-incubation of PEDV and AMPs. C) The fluorescence intensity of GFP across three different concentrations of LL-37 was illustrated through the FC histogram. […] The reported values in 4A represent the mean ± SD of three independent experiments performed in duplicate **** p < 0.0001."}, "[3]": {"system": "PEDV-GFP", "assay": "Co-incubation antiviral assay of the extended AMP panel and of FL LL-37", "assay_type": "cell-based, Porcine epidemic diarrhea virus", "conditions": "co-incubation with PEDV-GFP, 1 and 5 µM, 3 h, FC; two independent experiments in duplicate; Fig. 5", "description": "as §1\nThis extended panel of AMPs encompassed chicken-derived peptides (D-CATH-2, l-CATH-2), mouse-derived peptide (CRAMP), horse-derived peptides (eCATH-1, eCATH-3), parrot-derived peptides (ER2, ER3, AG3), and synthetic peptides (CR165, CR174), all of which were readily accessible within our laboratory. As previously described, these AMPs were co-incubated with PEDV.\nFig. 5 Antiviral effects of a diverse group of AMPs on PEDV infection. Vero cells were incubated for 3 h with a combination of PEDV-GFP and AMPs, as described previously. FC was utilized to assess the inhibitory impact of AMPs.\nFigure S4. The antiviral activity of FL LL-37 (fluorogenic LL-37 ) and unlabeled LL-37. Peptides were co-incubated at 1 and 5 µM with PEDV and added to Vero cells for 3 h, followed by FC analysis to examine the infectivity."}, "[4]": {"system": "PEDV-GFP", "assay": "Post-incubation (post-treatment) antiviral assay", "assay_type": "cell-based, Porcine epidemic diarrhea virus", "conditions": "Vero cells exposed to PEDV-GFP 2 h, washed, then AMPs for 3 h; FC; Fig. 7B, C", "description": "In post-incubation assays (Fig. 7A), cells were initially exposed to the virus for 2 h, washed 2times with PBS and subsequently treated with AMPs for 3 h Both for pre- and post-infection assays, after the respective incubation periods, the cells were assessed using fluorescence microscopy and quantified using FC as described above.\nFig. 7 Effects of AMPs in post-incubation assay. A) Design and setup of post-incubation assay. B) The percentage of GFP-positive cells was quantified using FC during post-incubation. C) The FC histogram illustrates the fluorescence intensity of GFP after treatment with CATH-B1 and LL-37. […] The reported values represent the mean ± SD derived from three independent experiments performed in triplicate."}, "[5]": {"system": "PEDV", "assay": "Transmission electron microscopy of peptide-treated virus", "design": "species or system Porcine epidemic diarrhea virus", "conditions": "PEDV treated with 10 µM peptide, negative stain, Fig. 9", "description": "PEDV was treated with CATH-B1, LL-37, PMAP-23, and PMAP-36 for one minute at 37 °C. Subsequently, 10 µL of the sample was placed onto a freshly carbon-coated copper grid. The grids were washed 3 times with PBS and then fixed with 1% glutaraldehyde (Sigma-Aldrich, St. Louis, MO, USA) in PBS for 10 min. Following this fixation, the grids were rinsed 2 times with PBS and 4 times with MilliQ water. They were stained for 5 min in Uranyl Acetate (pH 7) then briefly washed with methylcellulose/uranyl acetate (pH 4) and incubated for 5 min on ice. Finally, the grids were looped out of the solution and air-dried. The samples were subsequently examined in a JEM1010 (JEOL) equipped with a Veleta 2k × 2k CCD camera (EMSIS, Munster, Germany).\nFig. 9 The effect of AMPs on the morphology of the virus. PEDV (MOI=0.3), which was pre-incubated with peptides. TEM images were taken of PEDV alone (A–D), PEDV treated with 10 µM LL-37 (E-H), PEDV treated with 10 µM CATH-B1 (I-L), PEDV treated with 10 µM PMAP-23 (M, N), and PEDV treated with 10 µM PMAP-36 (O, P). […] Micrographs were captured with a pixel size of 0,5 nm and analyzed visually using ImageJ. The micrographs are representative of observations from three independent experiments. Scale bars represent 100 nm."}}}
{"sequence": "LLGDFFRKSKEKIGKEFKRIVQRIKDFLRNLVPRTES [LL-37, human cathelicidin antimicrobial peptide, 37 residues]", "values": [{"measurement": "percentage of GFP-positive cells (FC), co-incubation", "setting": "[1]; 10 µM peptide, PEDV-GFP MOI=0.3, 2 h co-incubation then 24 h, no-peptide control approximately 35%, three independent experiments in duplicate, Fig. 3A", "value": "1–2%"}, {"measurement": "infected cells by fluorescent microscopy, co-incubation", "setting": "[1]; PEDV-GFP MOI=0.3, 5 and 10 µM peptide, 2 h co-incubation then 24 h, compared to control without peptide, Fig. 2B", "value": "reduced numbers of infected cells"}, {"measurement": "% infected cells (FC), co-incubation at MOI=1", "setting": "[2]; 10 µM peptide, PEDV MOI=1, Vero cells, no-peptide control almost 100%", "value": 30, "unit": "%"}, {"measurement": "antiviral effect at MOI=1, in words", "setting": "[2]; PEDV MOI=1, co-incubation, Vero cells, FC", "value": "remained strong"}, {"measurement": "prevention of PEDV-GFP entry into Vero cells, extended AMP panel, in words", "setting": "[3]", "value": "strong antiviral activity"}, {"measurement": "antiviral activity in post-incubation assay, in words", "setting": "[4]", "value": "very moderate effect"}, {"measurement": "virus aggregation (TEM)", "setting": "[5]", "value": "in some cases, extensive virus aggregation"}, {"measurement": "effect on virus morphology / membrane (TEM)", "setting": "[5]; one minute at 37 °C", "value": "significant membrane disruption"}]}
